Test results as given in the supplement of paper PMC10949913.

Tests used:
Test in all cases: area under concentration-response curve (viability) (AUC (a.u.)); higher = less active
Settings in all cases: 48 h
CU-ACC1 = tested on: CU-ACC1
Outline: (§1)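 After 48 h of treatment with 23 nL of each library compound at 11 concentrations, three adrenocortical carcinoma cell lines in 1,536-well plates (500–1,000 cells/well, 5 µL medium) were given CellTiter-Glo for 15 minutes at room temperature. Luminescence was then read and normalised per plate to vehicle and empty-well controls. AC50 and area under the curve were drawn from fitted concentration-response curves of inhibitory or non-responding classes only.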

CU-ACC2 = tested on: CU-ACC2
Outline: as §1

NCI-H295R = tested on: NCI-H295R
Outline: as §1

SMILES	area under concentration-response curve (CU-ACC1)	area under concentration-response curve (CU-ACC2)	area under concentration-response curve (NCI-H295R)
CC(C)(Oc1ccc(C2CC2(Cl)Cl)cc1)C(=O)O (configuration not stated)	502	483	526
COc1ccc(CCC(=O)Nc2nc3ccc(Cl)cc3s2)cc1OC	575	600	563
CCCCNc1ncc2c(-c3ccc(CN4CCN(C)CC4)cc3)cn(C3CCC(O)CC3)c2n1 (configuration not stated)	513	585	527
COC1=CC=C2/C3=N/CCN3\C(=N/C2=C1OC)NC(=O)C4=CC=CN=C4	662	698	619
C[S+]([O-])(=O)C1=CC=C(C=C1)C/2=C(/C(=O)OC2)C3=CC=CC=C3	407	467	424
COCC1(CO)C(=O)C2CCN1CC2 (configuration not stated)	443	513	468
COc1ccc([S+](=O)([O-])N2CCc3cccc(-c4ccncc4)c32)cc1	576	563	472
OC[C@H]1O[C@@H](O[C@@H]2[C@@H](CO)O[C@](O)(CO)[C@H]2O)[C@H](O)[C@@H](O)[C@H]1O	508	569	532
N=C(N)NC(=N)NCCc1ccccc1	525	626	573
C[C@]1(c2nc3c(C(N)=O)cccc3[nH]2)CCCN1	495	564	521
CCCc1nc2c(C)cc(-c3nc4ccccc4n3C)cc2n1Cc1ccc(-c2ccccc2C(=O)O)cc1	561	639	599
COc1cc2ncnc(Nc3ccc(O)c(Br)c3)c2cc1OC	479	602	528
N\C1=N\C2=C(N=C[N]2COC(CO)CO)C(=O)N1	567	645	605
CC(C[N+](C)(C)C)OC(N)=O (configuration not stated)	569	662	591
CCCNC(=O)c1cn2ncnc(Nc3cc(C(=O)NC4CC4)ccc3C)c2c1C	539	654	583
Cc1ccc(C(=O)Nc2ccc([S+](=O)([O-])O)c3cc([S+](=O)([O-])O)cc([S+](=O)([O-])O)c23)cc1NC(=O)c1cccc(NC(=O)Nc2cccc(C(=O)Nc3cc(C(=O)Nc4ccc([S+](=O)([O-])O)c5cc([S+](=O)([O-])O)cc([S+](=O)([O-])O)c45)ccc3C)c2)c1	420	488	488
COC1=CC(=CC(=C1CN(C)C)OC)\C2=C\N(C)C(=O)C3=C2C=CN=C3	500	578	479

SMILES	area under concentration-response curve (CU-ACC1)	area under concentration-response curve (CU-ACC2)	area under concentration-response curve (NCI-H295R)
O=C(NCC1CCOCC1)c1cnc(Nc2ccc(Cl)cc2Cl)nc1C(F)(F)F	399	562	525
O=C(Cc1ccc(-c2ccc(OCCN3CCOCC3)cc2)cn1)NCc1ccccc1	397	531	493
CCN1\C=C(\C(O)=O)C(=O)C2=C1C=C(N3CCNCC3)C(=C2)F	356	397	393
C/C1=C2/[N]3[Co+]456([OH])<-[N]7=C1[C@@H](CCC(N)=O)C(C)(C)/C7=C/C1=[N]->4C(=C(/C)C4=[N]->5[C@@](C)([C@H]3[C@H](CC(N)=O)[C@@]2(C)CCC(=O)NC[C@@H](C)OP(=O)([O-])O[C@H]2[C@@H](O)[C@@H](n3c[n]->6c5cc(C)c(C)cc53)O[C@@H]2CO)[C@@](C)(CC(N)=O)[C@@H]4CCC(N)=O)/[C@@](C)(CC(N)=O)[C@@H]1CCC(N)=O	495	595	564
COc1cccc(Nc2ncnn3ccc(CN4CC[C@@H](N)[C@H](O)C4)c23)c1	399	534	552
CC(C)C[C@H](CN)CC(=O)O	474	595	545
C[C@]12CC[C@@H]3c4ccc(OC(=O)N(CCCl)CCCl)cc4CC[C@H]3[C@@H]1CC[C@@H]2OP(=O)([O-])[O-]	489	466	533
COC[C@@H](NC(C)=O)C(=O)NCc1ccccc1	503	619	560
c1ccc(CNCc2ccc(CN3CCCNCCNCCCNCC3)cc2)nc1	514	601	542
CNc1nc(Nc2cnn([C@H]3CCN(C4COC4)C[C@@H]3F)c2Cl)ncc1C(F)(F)F	562	604	566
CC[S+](=O)([O-])N1CCC([C@@H](C)n2c(C)c(/C(O)=N/Cc3c(OC)cc(C)nc3O)c3ccccc32)CC1	509	605	537
C\C1=C(\SSC1=S)C2=CN=CC=N2	524	618	569
COc1cc(CNC(=O)CCCC/C=C/C(C)C)ccc1O	542	653	599
COc1cc2cc(c1Cl)N(C)C(=O)C[C@H](OC(=O)C(C)C)[C@]1(C)O[C@@H]1[C@H](C)[C@@H]1C[C@@](O)(NC(=O)O1)[C@H](OC)/C=C/C=C(\C)C2	505	440	346
Cc1ccc([S+](=O)([O-])N[C@@H](Cc2ccccc2)C(=O)CCl)cc1	530	628	584
CC(N[C@H]1C[C@@H]1c1ccccc1)c1ccc2c(c1)OCCO2 (some centres not stated)	432	453	432
NC(=O)c1cnc(-c2ccc(C3(N)CCC3)cc2)c(-c2ccccc2)c1	537	648	554
